Measured values from PMC13236579, “Synthesis of aryl-fused bicyclo[3.1.1]heptanes and validation as naphthyl bioisosteres” (Nature Chemistry, 2026).
Values joined by “and” are separate entries in the source; they are usually repeats but may differ in a detail not shown here. Equal entries are not always repeated. Where two headings read alike, the source gives them in different places.

Columns and labels:
[1] = target: T1, aryl hydrocarbon receptor (AhR) (Homo sapiens, UniProt P35869); assay: AhR antagonism: CYP1A1 mRNA levels in HepG2 cells by RT-qPCR; type: cell-based; details: HepG2, 4 h incubation, 2^-ΔΔCt, normalized to DMSO control
T1 construct: Human hepatocellular carcinoma (HepG2) cell lines were acquired from Abcam; host or cells: HepG2 (human hepatocellular carcinoma)
T1 sequence (P35869 11-848): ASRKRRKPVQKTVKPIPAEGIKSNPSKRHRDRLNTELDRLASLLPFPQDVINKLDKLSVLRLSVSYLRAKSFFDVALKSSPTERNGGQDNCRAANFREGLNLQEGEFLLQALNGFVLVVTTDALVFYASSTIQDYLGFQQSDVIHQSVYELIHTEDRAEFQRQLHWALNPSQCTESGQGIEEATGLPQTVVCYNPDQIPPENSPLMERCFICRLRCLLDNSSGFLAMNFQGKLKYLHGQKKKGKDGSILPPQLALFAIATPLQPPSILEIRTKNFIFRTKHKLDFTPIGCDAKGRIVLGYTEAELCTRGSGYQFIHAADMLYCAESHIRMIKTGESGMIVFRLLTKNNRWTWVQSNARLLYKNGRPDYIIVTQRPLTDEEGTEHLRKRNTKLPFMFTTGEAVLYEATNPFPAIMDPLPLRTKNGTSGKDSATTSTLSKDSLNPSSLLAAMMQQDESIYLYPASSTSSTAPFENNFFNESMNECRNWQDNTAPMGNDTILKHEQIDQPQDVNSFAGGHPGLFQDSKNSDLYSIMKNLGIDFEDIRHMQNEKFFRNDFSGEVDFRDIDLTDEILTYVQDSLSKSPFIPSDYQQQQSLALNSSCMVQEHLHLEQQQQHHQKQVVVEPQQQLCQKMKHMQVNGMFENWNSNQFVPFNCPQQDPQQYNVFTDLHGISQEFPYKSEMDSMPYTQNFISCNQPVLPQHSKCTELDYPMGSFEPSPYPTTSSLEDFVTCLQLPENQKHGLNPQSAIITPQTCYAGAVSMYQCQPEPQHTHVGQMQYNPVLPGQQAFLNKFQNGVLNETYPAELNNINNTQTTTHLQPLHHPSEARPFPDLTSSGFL
Excerpt: To this aim, we decided to measure the activity of ezutromid and the analogues against ezutromid's primary target, which has recently been identified as the aryl hydrocarbon receptor (AhR)[40]. This nuclear transcription factor plays a pivotal role in the metabolism of exogenous small molecules by targeting nuclear DNA to upregulate the expression of several isoforms of CYP enzymes responsible for the phase I metabolism of drugs, such as CYP1A isoforms (Fig. 5a). Therefore, AhR inhibition can be monitored by measuring the relative expression of these genes, with lower CYP1A1 mRNA levels being proportional to AhR antagonism.  Fig. 5 AhR antagonism and biological evaluation of BCHep analogues. a, A schematic representation of how ezutromid antagonizes AhR preventing its translocation into the nuclei and its subsequent upregulation of CYP1A1 enzyme. The inhibition of AhR can therefore be evaluated as a decrease in CYP1A1 expression. b, The evaluation of 50a-c as AhR antagonists compared with ezutromid. Data have been obtained by quantitative RT-qPCR and analysed using the 2^-ΔΔCt method. Values obtained have been normalized to control (DMSO 1%) and presented as mean + s.e.m. The IC50 values were determined from biological triplicates, except for compounds 50c and ezutromid, which were measured from duplicate experimental replicates.

[2] = Kinetic solubility assay in phosphate buffer; type: physicochemical; details: aqueous buffer, kinetic from dmso stock, 50 mM PB (pH 7.4), room temperature
Experimental: A 50 mM phosphate buffer (pH 7.4) was prepared by mixing 50 mM Na₂HPO₄ (3.549 g in 500 mL H₂O, pH ≈ 9.4) and 50 mM NaH ₂PO₄ (3.000 g in 500 mL H₂O, pH ≈ 4.5). To obtain the working buffer, 15 mL of Na₂HPO₄ solution was transferred into a 50 mL tube and adjusted to pH 7.4 ± 0.05 with 50 mM NaH₂PO₄. For solubility determination, 10 µL of compound stock solution was added to each well of a 96 -well plate, followed by 490 µL of buffer. Samples were vortexed for 2 min, shaken at 70 x g for 24 h at room temperature, and then centrifuged at 25 °C for 10 min (1800 x g). Supernatants were filtered through MultiScreen® Solvinert plates (Millipore/Merck) by centrifugation (≥ 5 min) and collected into a fresh 96 -well plate. Filtrate concentrations were quantified by LC-UV using an ACQUITY UPLC BEH C18 (1.7 µm, 50 mm) column with Mobile Phase A (0.1% TFA, 5 mM NH ₄OAc in H₂O/ACN 95:5 v/v) and Mobile Phase B (0.1% TFA, 5 mM NH ₄OAc in H₂O/ACN 5:95 v/v). […]
Compound ID Batch Media Kinetic Solubility Kinetic Solubility

[3] = Metabolic stability in mouse liver microsomes (MLM) with or without ANF; type: in vitro ADME; details: for half-life at 1 μM / microsomal CLint at 1 μM: CD-1, mouse, liver microsomes, 1 μM compound; for microsomal CLint at 1 μM: read-out: CLint(mic)
Experimental: Finally, we subjected the most promising derivatives to metabolic stability studies in mouse liver microsomes (MLMs), a validated model for understanding phase I metabolism of drugs (Table 1). To investigate whether the analogues would be susceptible to CYPs metabolism, we repeated these tests in the presence of 3 μM α-naphthoflavone (ANF). ANF is a well-known inhibitor of CYP1A enzymes, which is responsible for the CYP oxidative metabolism of naphthalene ring in ezutromid. […] These findings support the strategy that BCHep substitution mitigates the metabolic liabilities associated with ezutromid, by both preserving metabolic stability and avoiding CYP1A-mediated metabolism. [table] page 148: Fig.S178. […] Data have been obtained by RT-qPCR, and analysed using the 2-∆∆Ct method. Values obtained have been normalized to control (DMSO 1%), and presented as Mean + SEM (n=4). Statistical analysis was performed using the Ordinary One-way ANOVA followed by Dunnett’s multiple comparisons test against Vehicle Control: **: p < 0.005; ****: p < 0.0001 (grey). Metabolic stability Metabolic stability of compounds was assessed in Mouse Liver Microsomes (MLM) by WuxiAppTech (Shangai, China). Briefly, ACN solutions of test compounds ( 50a-c, i.a concentration 1μM) were dispensed in duplicate in a 96-well plate using an Apricot automation workstation. A solution of MLM (CD-1 Mouse, RILD, Cat. number LM-XS-02M) in PBS, with or without ANF, was added to each compound and plates were incubated at 37°C for 10 minutes. Reactions were then initiated by adding NADPH (i.a. 1mM, 0.5mM MgCl2) an d […] performed by adding stop solution before activating the reaction). NADPH -independent metabolism was assessed for each condition by replacing NADPH solution with PBS b uffer. Phenacetine, diclofenac and propafenone were used as controls. After proper incubation time, reaction was stopped by addition of ice -cold ACN and the plates were sealed, shaken and centrifuged at 1800 x g and 4°C for 20 minutes. The supernatant was then subjected to LC/MS-MS analysis for residual drug quantitation using 250 nM tolbutamide and 250 nM labetalol as internal standards. Half-life (t1/2) and CLint (Intrinsic clearance) were calculated using standard pharmacokinetic calculations based on the decay of drug concentration over time. […] The test compound 50b at 10 µM was incubated with liver microsomes in the presence of NADPH at […] The positive control, 7-ethoxycoumarin (7-EC) at 10 µM, was run concurrently to 147 (1 picture or pasted object on this page, not shown here)

[4] = MetID of 50b in liver microsomes (LC-UV-MS); type: in vitro ADME, human
Experimental: Fig.S178. Evaluation of 50a-c as AhR antagonists compared to Ezutromid. Data have been obtained by RT-qPCR, and analysed using the 2-∆∆Ct method. Values obtained have been normalized to control (DMSO 1%), and presented as Mean + SEM (n=4). Statistical analysis was performed using the Ordinary One-way ANOVA followed by Dunnett’s multiple comparisons test against Vehicle Control: **: p < 0.005; ****: p < 0.0001 (grey).
Metabolic stability of compounds was assessed in Mouse Liver Microsomes (MLM) by WuxiAppTech (Shangai, China). Briefly, ACN solutions of test compounds ( 50a-c, i.a concentration 1μM) were dispensed in duplicate in a 96-well plate using an Apricot automation workstation. […] NADPH -independent metabolism was assessed for each condition by replacing NADPH solution with PBS b uffer. […]
After proper incubation time, reaction was stopped by addition of ice -cold ACN and the plates were sealed, shaken and centrifuged at 1800 x g and 4°C for 20 minutes. The supernatant was then subjected to LC/MS-MS analysis for residual drug quantitation using 250 nM tolbutamide and 250 nM labetalol as internal standards. Half-life (t1/2) and CLint (Intrinsic clearance) were calculated using standard pharmacokinetic calculations based on the decay of drug concentration over time. […]
incubation system was reliable for metabolic study. After incubation, the samples were analyzed by LC - UV-MS. […]

[5] = system: utrophin; parameters: method as in doi:10.1080/21678707.2018.1438261; details: patients with DMD, cited from earlier work
[6] = with α-naphthoflavone (ANF, CYP1A inhibitor) 3 μM, with 3 μM ANF (CYP1A inhibitor)
[7] = with α-naphthoflavone (ANF, CYP1A inhibitor) 3 μM, with 3 μM ANF

SMILES | IC50 [1] | solubility kinetic at 24 h [2] | increase in metabolic half-life compared with ezutromid [3] | half-life at 1 μM ([3]; without ANF) | microsomal CLint at 1 μM ([3]; without ANF) | half-life at 1 μM [3, 6] | microsomal CLint at 1 μM [3, 7] | Relative Abundance (UV Peak Area %Total) ([4]; 50b at 10 µM, human liver microsomes, NADPH, 37°C, 60 min) | predominant biotransformation ([4]; metabolic profiling of 50b) | half-life compared with ezutromid [3] | primary or secondary end points ([5]; after 48 weeks of treatment) | levels of utrophin ([5]; repeated dosing, 24-week data) | muscle fibre damage ([5]; repeated dosing, 24-week data)
CCS(=O)(=O)c1ccc2oc(C34Cc5ccccc5C(C3)C4)nc2c1 [50a] | 19 ± 18 µM | < 1.56 µM and < 0.552 µg/mL | ~ 2 fold | 94 ± 0.2 min | 14.7 ± 0.1 µL/min/mg | 108 ± 11 min | 12.8 ± 1.4 µL/min/mg |  |  |  |  |  | 
CCS(=O)(=O)c1ccc2oc(-c3ccc4c(c3)CC3CC4C3)nc2c1 [50b] | 2.12 ± 0.3 µM | < 1.56 µM and < 0.552 µg/mL |  | 40 ± 7 min | 35.6 ± 7 µL/min/mg | 42 ± 4 min | 33.6 ± 2.7 µL/min/mg | 66.02% | mono-oxygenation of the BCHep moiety | slight decrease |  |  | 
CCS(=O)(=O)c1ccc2oc(-c3ccc4c(c3)C3CC(C4)C3)nc2c1 [50c] | 13.1 ± 2 µM |  |  | 48 ± 8 min | 29.9 ± 4.9 µL/min/mg | 56 ± 10 min | 25.7 ± 4.6 µL/min/mg |  |  |  |  |  | 
CCS(=O)(=O)c1ccc2oc(-c3ccc4ccccc4c3)nc2c1 [Ezutromid, ezutromid, reference compound] | 0.27 µM | < 1.56 µM and < 0.527 µg/mL |  | 60 ± 5 min | 23.3 ± 2 µL/min/mg | 89 ± 6 min | 15.8 ± 1.1 µL/min/mg |  |  |  | failed to meet | increased | statistically significant reduction
